What all share (type): biochemical
Assay [1] has as its target T1, chDHRSX (Chinese hamster DHRSX) (Cricetulus griseus, UniProt A0A9J7GKV7).
T1 construct: gene LOC113838539; N-terminal 6xHis tag, pET15b, E. coli BL21(DE3), HisTrap native purification
T1 sequence (A0A9J7GKV7 1-328): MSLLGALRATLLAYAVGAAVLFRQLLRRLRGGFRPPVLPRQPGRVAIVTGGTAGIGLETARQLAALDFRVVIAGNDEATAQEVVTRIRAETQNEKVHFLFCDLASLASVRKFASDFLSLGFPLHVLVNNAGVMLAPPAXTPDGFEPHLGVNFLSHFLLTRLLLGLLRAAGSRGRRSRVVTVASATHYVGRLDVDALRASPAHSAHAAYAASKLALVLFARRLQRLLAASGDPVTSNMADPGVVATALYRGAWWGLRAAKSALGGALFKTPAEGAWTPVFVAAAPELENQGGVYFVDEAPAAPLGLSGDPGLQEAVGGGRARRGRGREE
As to the kind of experiment: LC-MS of dolichol-18 formation, Michaelis-Menten fit. The following applies: 4 μM dolichal mixture, pH 8.0, 37 °C, PC/PE lipids. From the text: LC-MS of dolichol-18 formation, Michaelis-Menten fit on chDHRSX (Chinese hamster DHRSX)

Assay [2] concerns the target T2, hDHRSX (human DHRSX) (Homo sapiens, UniProt Q8N5I4).
T2 construct: pUB83 hDHRSX-N-His lentiviral expression in DHRSX-null Lec5 and Lec9 CHO cells; membrane preparation
T2 sequence (Q8N5I4 2-330): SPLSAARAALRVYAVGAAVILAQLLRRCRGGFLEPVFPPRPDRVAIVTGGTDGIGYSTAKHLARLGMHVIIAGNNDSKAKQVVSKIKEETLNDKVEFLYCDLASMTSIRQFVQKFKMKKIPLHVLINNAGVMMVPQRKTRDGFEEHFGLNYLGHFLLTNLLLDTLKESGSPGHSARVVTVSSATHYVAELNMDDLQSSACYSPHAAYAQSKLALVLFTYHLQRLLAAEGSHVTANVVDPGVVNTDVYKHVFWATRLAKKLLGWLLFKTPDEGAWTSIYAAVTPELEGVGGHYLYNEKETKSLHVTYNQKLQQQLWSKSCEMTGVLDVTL
As to the kind of experiment: LC-MS of dolichol-18 formation in membranes. The following applies: dolichal mixture 5 μg/ml, 5 mM NADPH, pH 8.0, 37 °C, 2 h.

Assay [3] concerns the target T2, hDHRSX (human DHRSX). The assay is described as follows: LC-MS of polyprenal-18 formation in membranes. The following applies: polyprenol mixture 5 μg/ml, 5 mM NAD+, pH 8.0, 37 °C, 2 h.
For assay [4], the target named is T1, chDHRSX (Chinese hamster DHRSX). The assay is described as follows: LC-MS of polyprenal-18 formation, Michaelis-Menten fit. The following applies: 4 μM polyprenol mixture, pH 8.0, 37 °C, PC/PE lipids. The text has this: LC-MS of polyprenal-18 formation, Michaelis-Menten fit on chDHRSX (Chinese hamster DHRSX)

As to `NC(=O)C1=CN([C@@H]2O[C@H](COP(=O)(O)OP(=O)(O)OC[C@H]3O[C@@H](n4cnc5c(N)ncnc54)[C@H](OP(=O)(O)O)[C@@H]3O)[C@@H](O)[C@H]2O)C=CC1` [NADPH], in assay [1] (read-out: NADPH), the Km was found to be 26 ± 8 µM. On hDHRSX (human DHRSX) [2], the “LC-MS of dolichol-18 formation in membranes” value is “expression of hDHRSX strongly increased dolichol formation”.
For `NC(=O)C1=CN([C@@H]2O[C@H](COP(=O)(O)OP(=O)(O)OC[C@H]3O[C@@H](n4cnc5c(N)ncnc54)[C@H](O)[C@@H]3O)[C@@H](O)[C@H]2O)C=CC1` [NADH], the Km in assay [1] (read-out: NADH) is 34 ± 7 µM.
As for `NC(=O)c1ccc[n+]([C@@H]2O[C@H](COP(=O)(O)OP(=O)(O)OC[C@H]3O[C@@H](n4cnc5c(N)ncnc54)[C@H](O)[C@@H]3O)[C@@H](O)[C@H]2O)c1` [NAD^+], at hDHRSX (human DHRSX) [3], the “LC-MS of polyprenal-18 formation in membranes” value is “expression of hDHRSX in Lec5 and Lec9 cells increased the formation of polyprenal”. Also, the Km in assay [4] (read-out: NAD^+) amounted to 81 ± 36 µM.
With `NC(=O)c1ccc[n+]([C@@H]2O[C@H](COP(=O)(O)OP(=O)(O)OC[C@H]3O[C@@H](n4cnc5c(N)ncnc54)[C@H](OP(=O)(O)O)[C@@H]3O)[C@@H](O)[C@H]2O)c1` [NADP^+], in assay [4] (read-out: NADP^+), the Km turned out to be 96 ± 43 µM.

For the origin of these results see paper PMC11607601, “Absence of the dolichol synthesis gene DHRSX leads to N-glycosylation defects in Lec5 and Lec9 Chinese hamster ovary cells” (The Journal of Biological Chemistry, 2024).
